Data from patent US11286256B2, “Bicyclic inhibitors of histone deacetylase” (Alkermes, Inc., priority 2017, dated 2022).
Converted amounts (≈) assume the structure as drawn.

What was measured:
[1] = Aqueous kinetic solubility measurement; format: physicochemical
Protocol: Compounds were evaluated for their kinetic solubility in buffer or water. Aliquots of 8 μL of reference and test compound stock solutions (10 mM in DMSO) were added into 792 μL of 100 mM phosphate buffer (0.1 M NaPO4, pH 7.4). Final DMSO concentration is 1%. The sample tubes were shaken for 1 hour (1000 rpm) at room temperature. A calibration curve was prepared using 300 μM spiking solution (SS) in MeOH/ACN(4:1) (SS=add 6 μL 10 mM compound in 194 μL MeOH/ACN(4:1)). Samples were centrifuged for 10 min (12000 rpm) to precipitate undissolved particles, and the supernatants were transferred to a new tube or plate. Supernatants were diluted 10 times and 100 times with 100 mM buffer. Samples were then prepared for analysis by LC-MS/MS (Add 5 μL of compound samples (not diluted, 10 times diluted and 100 times diluted) and standard curve samples to 95 μL of ACN containing internal standard. Internal standards used are Propranolol, Ketoconazole, and Tamoxifen.

[2] = test system: dendritic spines of CA1 pyramidal neurons, dorsal hippocampus; assay: Dendritic spine morphology in dorsal hippocampus (CA1) after 14 days of oral treatment; format: in vivo, wild type mice (C57BL/6J); conditions: for Thin Spines (% increase over vehicle) / Total Spines (% increase over vehicle): 14 days, WT mice; for dendritic spine density (in words, earlier studies): Compound 2 at 1, 3, 6 and 20 mg/kg/day, Compound 1 at 10 mg/kg/day
Protocol: Compounds were evaluated to determine whether sub-chronic treatment could produce changes in dendritic spine morphology in the CA1 region of the dorsal hippocampus in wild type (WT) mice. Compounds were administered orally to wild type mice, daily for 14 days. Doses were chosen based on pharmacokinetic data, brain exposure, and potency. Effects of compounds treatments on dendritic spine morphology in the CA1 region of the dorsal hippocampus were then evaluated.
Male C57BL/6J mice (7-8-weeks old, n=7 per group) were dosed orally with Rodin compounds or vehicle (20% HPßCD) daily for 14 days. Doses for compounds were chosen based on exposure data from pharmacokinetic experiments. […] Mice were sacrificed 24 hours after the last dose, and underwent transcardial perfusion for preparation of brain samples.
Mice were anesthetized with chloral hydrate (4% chloral hydrate in saline, 10 ml/kg) before undergoing transcardial perfusion with 4% PFA in 1×PBS (pH7.4, room temperature) at 20 mL/min for 54 seconds. Immediately after the perfusion, mice were decapitated and their brain extracted. Brains were postfixed in scintillation vials containing 4% PFA (5-10 ml) for 4 min. Brains were sectioned using a tissue vibratome (Leica VT1000) to collect sections (300 μm thick) from the anterior to posterior extremes of each brain.
Superresolution laser-scanning confocal microscopy (Zeiss LSM880, Airyscan) was performed using a 63× objective (1.42 NA) to scan individually labeled neurons at high resolution (scan resolution=0.06 um μm/pixel; axial resolution=0.06 um μm/focal step). Target neurons were identified in the brain region of interest by epifluorescence navigation using anatomical location and cell morphology. Microscopy was performed blind to experimental conditions. A minimum of 7 mice were tested in each experimental condition. A minimum of 5 samples per mouse (range=5-6) were measured for each segment.
Blind deconvolution (AutoQuant) was applied to raw three-dimensional digital images which were then analyzed for spine density and morphology by trained analysts. Individual spines were measured manually for (a) head diameter, (b) length, and (c) neck thickness from image Z-stacks using custom-built Afraxis ESP software. Each dendrite was analyzed by 3 (on average) independent analysts. Automated image assignment software distributed images to analysts in a randomized manner and ensured that each analyst performed measurements of near equal numbers of dendrites per group. Analysts were blinded to all experimental conditions (including treatment, brain region, and cell type).
Each identified dendritic spine was measured for (a) spine length, (b) spine head diameter, and (c) neck width. Population distributions of each measure were compiled for each dendritic sample and pooled by group. Raw dendritic spine morphometric values (spine length, head diameter, neck width) were assembled into a scheme used to describe classic spine phenotypes (e.g. mushroom, stubby, etc.). Total spine density was also reported as the sum of the density of all subclasses.
General Observations. […] For adequate study to study comparisons, total spine density data were normalized to % vehicle levels
[formula] Data were then reported as mean+/−SEM of total spine density (% increase from Vehicle).

COCc1cc2c(cn1)CN(C(=O)Nc1nc(-c3ccc(F)cc3F)ccc1N)C2 [Compound 1]
solubility (in words) [1]: slightly reduced | solubility at 1 h ([1]; aqueous buffer, kinetic from dmso stock, kinetic, 100 mM phosphate buffer pH 7.4, 1% DMSO): 27 µM (≈ 11.1 µg/mL) | Thin Spines (% increase over vehicle) ([2]; 0.1 mg/kg PO daily): 13.8% | Total Spines (% increase over vehicle) ([2]; 0.1 mg/kg PO daily): 12.2% | Thin Spines (% increase over vehicle) ([2]; 0.3 mg/kg PO daily): 23.2% | Total Spines (% increase over vehicle) ([2]; 0.3 mg/kg PO daily): 21.3% | Thin Spines (% increase over vehicle) ([2]; 1 mg/kg PO daily): 45.1% | Total Spines (% increase over vehicle) ([2]; 1 mg/kg PO daily): 34.6% | Thin Spines (% increase over vehicle) ([2]; 3 mg/kg PO daily): 25.3% | Total Spines (% increase over vehicle) ([2]; 3 mg/kg PO daily): 26.7% | Thin Spines (% increase over vehicle) ([2]; 10 mg/kg PO daily): 19.9% | Total Spines (% increase over vehicle) ([2]; 10 mg/kg PO daily): 25.1% | dendritic spine density (in words, earlier studies) [2]: increases in dendritic spine density

Cc1ncc2c(n1)CN(C(=O)Nc1nc(-c3cccs3)ccc1N)C2 [Compound 2]
Thin Spines (% increase over vehicle) ([2]; 0.1 mg/kg PO daily): 11.3% | Total Spines (% increase over vehicle) ([2]; 0.1 mg/kg PO daily): 8.1% | Thin Spines (% increase over vehicle) ([2]; 1 mg/kg PO daily): 21.2% | Total Spines (% increase over vehicle) ([2]; 1 mg/kg PO daily): 21.4% | Thin Spines (% increase over vehicle) ([2]; 3 mg/kg PO daily): 32.2% | Total Spines (% increase over vehicle) ([2]; 3 mg/kg PO daily): 24.7% | Thin Spines (% increase over vehicle) ([2]; 6 mg/kg PO daily): 35.4% | Total Spines (% increase over vehicle) ([2]; 6 mg/kg PO daily): 15% | Thin Spines (% increase over vehicle) ([2]; 20 mg/kg PO daily): 37.4% | Total Spines (% increase over vehicle) ([2]; 20 mg/kg PO daily): −0.12% | dendritic spine density (in words, earlier studies) [2]: increases in dendritic spine density
